From patent US8247211B2, “Glycopeptide antibiotics” (American Cyanamid Company, priority 2001, dated 2012)
In brackets after ≈: the same amount, converted by molar mass.

Tests used:
Assay in all cases: In vitro antibacterial evaluation: minimum inhibitory concentration (MIC), broth dilution method
Assay type in all cases: cell-based
Escherichia coli = conditions: 18 hours at 35° C.
Summary of the method: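 Susceptibility determined by NCCLS-recommended broth dilution (M7-A2), Muller-Hinton II […]. Concentration span 64-0.06 μg/mL, inoculum 5×10^5 CFU/mL. Isolates include strains resistant to methicillin, penicillin and/or vancomycin.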

Staphylococcus sp. = conditions: for MIC Staphylococcus aureus (ATCC 29213): strain ATCC 29213; for MIC Staphylococcus aureus (GC 1131): strain GC 1131; for MIC Staphylococcus aureus (GC 3051): strain GC 3051; for MIC Staphylococcus aureus (GC 3053): strain GC 3053; for MIC Staphylococcus aureus (GC 4541): strain GC 4541; for MIC Staphylococcus aureus (GC 4542): strain GC 4542; for MIC Staphylococcus aureus-SMITH (GC 4543): strain GC 4543; for MIC Staphylococcus aureus (GC 4544): strain GC 4544; for MIC Staphylococcus aureus (GC 4545): strain GC 4545; for MIC Staphylococcus haemolyticus (GC 4546): strain GC 4546; for MIC Coagulase Negative Staphylococcus (GC 4547): strain GC 4547; for MIC Coagulase Negative Staphylococcus (GC 4548): strain GC 4548; for MIC Coagulase Negative Staphylococcus (GC 4549): strain GC 4549; for MIC Coagulase Negative Staphylococcus (GC 4551): strain GC 4551
Summary of the method: (§1)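 Using Muller-Hinton II […] and an inoculum of 5×10^5 CFU/mL, antibiotic dilutions from 64 down to 0.06 μg/mL were tested following NCCLS M7-A2. The MIC is the lowest concentration inhibiting growth, including in methicillin-, penicillin- or vancomycin-resistant clinical isolates.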

Enterococcus sp. = conditions: 18 hours at 35° C.
Summary of the method: as §1

Streptococcus sp. = conditions: 18 hours at 35° C.
Summary of the method: as §1

[1] = Enterococcus faecalis (ATCC 29212)
[2] = Enterococcus faecalis (GC 2242)
[3] = Enterococcus faecalis (GC 2691)
[4] = Enterococcus faecalis (GC 3059)
[5] = Enterococcus faecalis (GC 4552)
[6] = Enterococcus faecalis (GC 4553)
[7] = Enterococcus faecalis (GC 4554)
[8] = Enterococcus faecalis (GC 6189)
[9] = broth dilution, inoculum 5×10^5 CFU/mL
[10] = Streptococcus agalactiae (GC 4564)
[11] = Streptococcus pneumoniae (ATCC 6301)
[12] = Streptococcus pneumoniae (GC 1894)
[13] = Streptococcus pneumoniae (GC 4565)
[14] = Streptococcus pyogenes (GC 4563)

N=C1NCC(C(O)C2NC(=O)C(CC3CCC(OC4OC(CO)C(OC5OC6COC7(OC6C(O)C5O)C5CC6CC(C5)CC7C6)C(O)C4O)CC3)NC(=O)C(CC3CCCCC3)NC(=O)CNC(=O)C(CO)NC(=O)C(C(O)C3CNC(=N)N3C3OC(CO)C(O)C(O)C3O)NC2=O)N1 (stereo not drawn) [Example 222]
MIC Escherichia coli (ATCC 25922) (Escherichia coli): >64 µg/mL | MIC Escherichia coli (GC 4559) (Escherichia coli): >64 µg/mL | MIC Escherichia coli (GC 4560) (Escherichia coli): 64 µg/mL (≈ 44.9 µM) | MIC Staphylococcus aureus (ATCC 29213) (Staphylococcus sp.): >64 µg/mL | MIC Staphylococcus aureus (GC 1131) (Staphylococcus sp.): >64 µg/mL | MIC Staphylococcus aureus (GC 3051) (Staphylococcus sp.): >64 µg/mL | MIC Staphylococcus aureus (GC 3053) (Staphylococcus sp.): >64 µg/mL | MIC Staphylococcus aureus (GC 4541) (Staphylococcus sp.): >64 µg/mL | MIC Staphylococcus aureus (GC 4542) (Staphylococcus sp.): >64 µg/mL | MIC Staphylococcus aureus-SMITH (GC 4543) (Staphylococcus sp.): >64 µg/mL | MIC Staphylococcus aureus (GC 4544) (Staphylococcus sp.): >64 µg/mL | MIC Staphylococcus aureus (GC 4545) (Staphylococcus sp.): >64 µg/mL | MIC Staphylococcus haemolyticus (GC 4546) (Staphylococcus sp.): >64 µg/mL | MIC Coagulase Negative Staphylococcus (GC 4547) (Staphylococcus sp.): >64 µg/mL | MIC Coagulase Negative Staphylococcus (GC 4548) (Staphylococcus sp.): >64 µg/mL | MIC Coagulase Negative Staphylococcus (GC 4549) (Staphylococcus sp.): >64 µg/mL | MIC Coagulase Negative Staphylococcus (GC 4551) (Staphylococcus sp.): >64 µg/mL | MIC Enterococcus avium (GC 4558) (Enterococcus sp.; Enterococcus avium (GC 4558)): 64 µg/mL (≈ 44.9 µM) | MIC Enterococcus faecalis (ATCC 29212) (Enterococcus sp.; [1]): >64 µg/mL | MIC Enterococcus faecalis (GC 2242) (Enterococcus sp.; [2]): >64 µg/mL | MIC Enterococcus faecalis (GC 2691) (Enterococcus sp.; [3]): >64 µg/mL | MIC Enterococcus faecalis (GC 3059) (Enterococcus sp.; [4]): >64 µg/mL | MIC Enterococcus faecalis (GC 4552) (Enterococcus sp.; [5]): >64 µg/mL | MIC Enterococcus faecalis (GC 4553) (Enterococcus sp.; [6]): >64 µg/mL | MIC Enterococcus faecalis (GC 4554) (Enterococcus sp.; [7]): >64 µg/mL | MIC Enterococcus faecalis (GC 6189) (Enterococcus sp.; [8]): >64 µg/mL | MIC Enterococcus faecium (GC 2243) (Enterococcus sp.; Enterococcus faecium (GC 2243)): >64 µg/mL | MIC Enterococcus faecium (GC 4556) (Enterococcus sp.; Enterococcus faecium (GC 4556)): >64 µg/mL | MIC Enterococcus faecium (GC 4557) (Enterococcus sp.; Enterococcus faecium (GC 4557)): 64 µg/mL (≈ 44.9 µM) | MIC Enterococcus avium (GC 4558) (Enterococcus sp.; [9]): 64 µg/mL (≈ 44.9 µM) | MIC Enterococcus faecalis (ATCC 29212) (Enterococcus sp.; [9]): >64 µg/mL | MIC Enterococcus faecalis (GC 2242) (Enterococcus sp.; [9]): >64 µg/mL | MIC Enterococcus faecalis (GC 2691) (Enterococcus sp.; [9]): >64 µg/mL | MIC Enterococcus faecalis (GC 3059) (Enterococcus sp.; [9]): >64 µg/mL | MIC Enterococcus faecalis (GC 4552) (Enterococcus sp.; [9]): >64 µg/mL | MIC Enterococcus faecalis (GC 4553) (Enterococcus sp.; [9]): >64 µg/mL | MIC Enterococcus faecalis (GC 4554) (Enterococcus sp.; [9]): >64 µg/mL | MIC Enterococcus faecalis (GC 6189) (Enterococcus sp.; [9]): >64 µg/mL | MIC Enterococcus faecium (GC 2243) (Enterococcus sp.; [9]): >64 µg/mL | MIC Enterococcus faecium (GC 4556) (Enterococcus sp.; [9]): >64 µg/mL | MIC Enterococcus faecium (GC 4557) (Enterococcus sp.; [9]): 64 µg/mL (≈ 44.9 µM) | MIC Streptococcus agalactiae (GC 4564) (Streptococcus sp.; [10]): >64 µg/mL | MIC Streptococcus pneumoniae (ATCC 6301) (Streptococcus sp.; [11]): 64 µg/mL (≈ 44.9 µM) | MIC Streptococcus pneumoniae (GC 1894) (Streptococcus sp.; [12]): 32 µg/mL (≈ 22.4 µM) | MIC Streptococcus pneumoniae (GC 4565) (Streptococcus sp.; [13]): 64 µg/mL (≈ 44.9 µM) | MIC Streptococcus pyogenes (GC 4563) (Streptococcus sp.; [14]): 64 µg/mL (≈ 44.9 µM) | MIC Streptococcus agalactiae (GC 4564) (Streptococcus sp.; [9]): >64 µg/mL | MIC Streptococcus pneumoniae (ATCC 6301) (Streptococcus sp.; [9]): 64 µg/mL (≈ 44.9 µM) | MIC Streptococcus pneumoniae (GC 1894) (Streptococcus sp.; [9]): 32 µg/mL (≈ 22.4 µM) | MIC Streptococcus pneumoniae (GC 4565) (Streptococcus sp.; [9]): 64 µg/mL (≈ 44.9 µM) | MIC Streptococcus pyogenes (GC 4563) (Streptococcus sp.; [9]): 64 µg/mL (≈ 44.9 µM)

N=C1NCC(C(O)C2NC(=O)C(CC3CCC(OC4OC(CO)C(OC5OC6COC7(OC6C(O)C5O)C5CC6CC(C5)CC7C6)C(O)C4O)CC3)NC(=O)C(CC3CCCCC3)NC(=O)CNC(=O)C(CO)NC(=O)C(C(O)C3CNC(=N)N3C3OC(CO)C(O)C(O)C3O)NC2=O)N1 (stereo not drawn) [Example 223]
MIC Escherichia coli (ATCC 25922) (Escherichia coli): >64 µg/mL | MIC Escherichia coli (GC 4559) (Escherichia coli): >64 µg/mL | MIC Escherichia coli (GC 4560) (Escherichia coli): 32 µg/mL (≈ 22.4 µM) | MIC Staphylococcus aureus (ATCC 29213) (Staphylococcus sp.): >64 µg/mL | MIC Staphylococcus aureus (GC 1131) (Staphylococcus sp.): >64 µg/mL | MIC Staphylococcus aureus (GC 3051) (Staphylococcus sp.): 64 µg/mL (≈ 44.9 µM) | MIC Staphylococcus aureus (GC 3053) (Staphylococcus sp.): >64 µg/mL | MIC Staphylococcus aureus (GC 4541) (Staphylococcus sp.): 64 µg/mL (≈ 44.9 µM) | MIC Staphylococcus aureus (GC 4542) (Staphylococcus sp.): 64 µg/mL (≈ 44.9 µM) | MIC Staphylococcus aureus-SMITH (GC 4543) (Staphylococcus sp.): 64 µg/mL (≈ 44.9 µM) | MIC Staphylococcus aureus (GC 4544) (Staphylococcus sp.): 64 µg/mL (≈ 44.9 µM) | MIC Staphylococcus aureus (GC 4545) (Staphylococcus sp.): 64 µg/mL (≈ 44.9 µM) | MIC Staphylococcus haemolyticus (GC 4546) (Staphylococcus sp.): 64 µg/mL (≈ 44.9 µM) | MIC Coagulase Negative Staphylococcus (GC 4547) (Staphylococcus sp.): 64 µg/mL (≈ 44.9 µM) | MIC Coagulase Negative Staphylococcus (GC 4548) (Staphylococcus sp.): 64 µg/mL (≈ 44.9 µM) | MIC Coagulase Negative Staphylococcus (GC 4549) (Staphylococcus sp.): 64 µg/mL (≈ 44.9 µM) | MIC Coagulase Negative Staphylococcus (GC 4551) (Staphylococcus sp.): 64 µg/mL (≈ 44.9 µM) | MIC Enterococcus avium (GC 4558) (Enterococcus sp.; Enterococcus avium (GC 4558)): 64 µg/mL (≈ 44.9 µM) | MIC Enterococcus faecalis (ATCC 29212) (Enterococcus sp.; [1]): >64 µg/mL | MIC Enterococcus faecalis (GC 2242) (Enterococcus sp.; [2]): >64 µg/mL | MIC Enterococcus faecalis (GC 2691) (Enterococcus sp.; [3]): >64 µg/mL | MIC Enterococcus faecalis (GC 3059) (Enterococcus sp.; [4]): >64 µg/mL | MIC Enterococcus faecalis (GC 4552) (Enterococcus sp.; [5]): >64 µg/mL | MIC Enterococcus faecalis (GC 4553) (Enterococcus sp.; [6]): 64 µg/mL (≈ 44.9 µM) | MIC Enterococcus faecalis (GC 4554) (Enterococcus sp.; [7]): >64 µg/mL | MIC Enterococcus faecalis (GC 6189) (Enterococcus sp.; [8]): >64 µg/mL | MIC Enterococcus faecium (GC 2243) (Enterococcus sp.; Enterococcus faecium (GC 2243)): >64 µg/mL | MIC Enterococcus faecium (GC 4556) (Enterococcus sp.; Enterococcus faecium (GC 4556)): >64 µg/mL | MIC Enterococcus faecium (GC 4557) (Enterococcus sp.; Enterococcus faecium (GC 4557)): 64 µg/mL (≈ 44.9 µM) | MIC Enterococcus avium (GC 4558) (Enterococcus sp.; [9]): 64 µg/mL (≈ 44.9 µM) | MIC Enterococcus faecalis (ATCC 29212) (Enterococcus sp.; [9]): >64 µg/mL | MIC Enterococcus faecalis (GC 2242) (Enterococcus sp.; [9]): >64 µg/mL | MIC Enterococcus faecalis (GC 2691) (Enterococcus sp.; [9]): >64 µg/mL | MIC Enterococcus faecalis (GC 3059) (Enterococcus sp.; [9]): >64 µg/mL | MIC Enterococcus faecalis (GC 4552) (Enterococcus sp.; [9]): >64 µg/mL | MIC Enterococcus faecalis (GC 4553) (Enterococcus sp.; [9]): 64 µg/mL (≈ 44.9 µM) | MIC Enterococcus faecalis (GC 4554) (Enterococcus sp.; [9]): >64 µg/mL | MIC Enterococcus faecalis (GC 6189) (Enterococcus sp.; [9]): >64 µg/mL | MIC Enterococcus faecium (GC 2243) (Enterococcus sp.; [9]): >64 µg/mL | MIC Enterococcus faecium (GC 4556) (Enterococcus sp.; [9]): >64 µg/mL | MIC Enterococcus faecium (GC 4557) (Enterococcus sp.; [9]): 64 µg/mL (≈ 44.9 µM) | MIC Streptococcus agalactiae (GC 4564) (Streptococcus sp.; [10]): >64 µg/mL | MIC Streptococcus pneumoniae (ATCC 6301) (Streptococcus sp.; [11]): 64 µg/mL (≈ 44.9 µM) | MIC Streptococcus pneumoniae (GC 1894) (Streptococcus sp.; [12]): 32 µg/mL (≈ 22.4 µM) | MIC Streptococcus pneumoniae (GC 4565) (Streptococcus sp.; [13]): >64 µg/mL | MIC Streptococcus pyogenes (GC 4563) (Streptococcus sp.; [14]): 64 µg/mL (≈ 44.9 µM) | MIC Streptococcus agalactiae (GC 4564) (Streptococcus sp.; [9]): >64 µg/mL | MIC Streptococcus pneumoniae (ATCC 6301) (Streptococcus sp.; [9]): 64 µg/mL (≈ 44.9 µM) | MIC Streptococcus pneumoniae (GC 1894) (Streptococcus sp.; [9]): 32 µg/mL (≈ 22.4 µM) | MIC Streptococcus pneumoniae (GC 4565) (Streptococcus sp.; [9]): >64 µg/mL | MIC Streptococcus pyogenes (GC 4563) (Streptococcus sp.; [9]): 64 µg/mL (≈ 44.9 µM)
